Test system: male codling moths
Test: Wind tunnel test, behavioral responses of male codling moths
Assay type: in vivo, Cydia pomonella (codling moth)
[1] = Example 6, mean percentage, 100000 μg alone
[2] = Example 5, 100 μg alone, initial values
[3] = Example 6, mean percentage, 100 μg alone

Which results are given for `CC(C)=CCC/C(C)=C/CC/C(C)=C/CO` [E,E-farnesol]?
Oriented Flight of Males [1]: 0%; Source Contact of Males [1]: 0%; Upwind Response of Males [1]: 25%

For `CCCCCOC(C)=O` [amyl acetate], which “Oriented Flight of Males” value [1] is on record?
Its value is 5%.

What about the “Source Contact of Males” value [1] of the same compound?
The value was 0%.

What about the “Upwind Response of Males” value [1] of the same compound?
The value was 30%.

How did the “Oriented Flight of Males” value [2] turn out when `C/C=C/C=C/CCCCCCCO` [codlemone, (E,E)-8,10-dodecadien-1-ol] was run?
Its value is 55.

What about the “Source Contact of Males” value [2] of the same compound?
The value was 40.

And the “Upwind Response of Males” value [2]?
Its value is 60.

What about the “Oriented Flight of Males” value [3] of the same compound?
The value was 60%.

What about the “Source Contact of Males” value [3] of the same compound?
Its value is 50%.

And the “Upwind Response of Males” value [3]?
The value was 70%.

With `CCCCCCCCCCCCO` [dodecanol] as the compound, how does the “Oriented Flight of Males” value [1] read?
The value was 0%.

And the “Source Contact of Males” value [1]?
Its value is 0%.

What about the “Upwind Response of Males” value [1] of the same compound?
The value was 20%.

What does the source list for `CCOC(=O)CC(C)C` [ethyl isovalerate, ethyl 3-methylbutanoate]?
Oriented Flight of Males [1]: 10%; Source Contact of Males [1]: 0%; Upwind Response of Males [1]: 30%

`COC(=O)c1ccccc1O` [methyl salicylate] was tested. Which “Oriented Flight of Males” value [1] did it give?
Its value is 0%.

And the “Source Contact of Males” value [1]?
Its value is 0%.

And the “Upwind Response of Males” value [1]?
Its value is 25%.

Which “Oriented Flight of Males” value [1] does the source give for `CCCCC/C=C\C=C\C(=O)OCC` [pear ester, ethyl (2E,4Z)-decadienoate] here?
Its value is 0%.

What about the “Source Contact of Males” value [1] of the same compound?
The value was 0%.

What about the “Upwind Response of Males” value [1] of the same compound?
Its value is 27%.

Source: patent publication US20130295154A1, “POLY(METH)ACRYLATE BASED MICROCAPSULES COMPRISING PHEROMONE” (BASF SE, priority 2011, published 2013)
